Experimental findings from PubChem BioAssay AID1053159 (Broad Institute, 2014) are described below.

For the test, the system named is HepG2 PCSK9 mRNA qRT-PCR, time course 0.5-28 h. Kind of test: PCSK9 mRNA reduction over time, late-stage follow-up, mechanism study for Trib1 inducer project, cell-based, HepG2, RT-PCR, time course (AID 1053159). As to conditions: dose 2.5; stronger effect = lower value.

`CN1C(=O)c2cc(NC(=O)c3ccc(C(F)(F)F)cc3)ccc2OC[C@@H]2O[C@H](CC(=O)NC3Cc4ccccc4C3)CC[C@@H]21`: the relative PCSK9 expression was 19%.
